From patent US6676928B2, “Perfluoroalkyl-containing complexes with polar radicals, process for their production and their use” (Schering Aktiengesellschaft, priority 2000, dated 2004)

How the values were obtained:
[1] = 39° C., 0.47 T; cited from earlier work
[2] = 39° C., 0.47 T; cited from earlier work; remark: listed apart in the source
[3] = Organ distribution (including tumor and lymph node concentration) after intravenous administration in prostate-cancer-carrying rats; format: in vivo, rats (Cop-inbreeding, Dunning R3327 MAT-Lu prostate cancer); conditions: rat i.v. 100 μmol Gd/kg
Excerpt: Organ Distribution (Including Tumor and Lymph Node Concentration) After Intravenous Administration of the Contrast Medium According to the Invention From Example 3 in Prostate-cancer-Carrying Rats.
After intravenous administration of 100 μmol of total gadolinium/kg of body weight of the title compound of Example 3 in rats (Cop-inbreeding Dunning R3327 MAT-Lu prostate cancer i.m.-implanted 12 days earlier), the metal content in various organs, in tumors and in lymph nodes (pooled as mesenteral and peripheral lymph nodes) was determined 10 minutes, 1 and 24 hours after administration (MW=SD, n=3).

[4] = blood (58 ml of blood/kg of body weight), 10 min p.i.
[5] = blood (58 ml of blood/kg of body weight), 1 h p.i.
[6] = blood (58 ml of blood/kg of body weight), 24 h p.i.
[7] = intestine (emptied), 10 min p.i.
[8] = mes. LK (pooled mesenteral lymph nodes), 10 min p.i.
[9] = mes. LK (pooled mesenteral lymph nodes), 1 h p.i.
[10] = mes. LK (pooled mesenteral lymph nodes), 24 h p.i.
[11] = muscle (only tissue sample from right lower leg muscle), 10 min p.i.
[12] = muscle (only tissue sample from right lower leg muscle), 1 h p.i.
[13] = muscle (only tissue sample from right lower leg muscle), 24 h p.i.
[14] = periph. LK (pooled peripheral lymph nodes), 10 min p.i.
[15] = periph. LK (pooled peripheral lymph nodes), 1 h p.i.
[16] = periph. LK (pooled peripheral lymph nodes), 24 h p.i.
[17] = remainder of the body, 24 h p.i.

CC(O)CN1CCN(CC(=O)[O-])CCN(CC(=O)[O-])CCN(CC(=O)[O-])CC1.[Gd+3] (centres unmarked) [PRO HANCE ®]
T^1 - Relaxivity in Water [1]: 3.7 mmol⁻¹ s⁻¹
T^1 - Relaxivity in Plasma [2]: 4.9 mmol⁻¹ s⁻¹

CNC[C@H](O)[C@@H](O)[C@H](O)[C@H](O)CO.CNC[C@H](O)[C@@H](O)[C@H](O)[C@H](O)CO.O=C([O-])CN(CCN(CC(=O)[O-])CC(=O)O)CCN(CC(=O)[O-])CC(=O)O.[Gd+3] [MAGNEVIST ®]
T^1 - Relaxivity in Water [1]: 3.8 mmol⁻¹ s⁻¹
T^1 - Relaxivity in Plasma [2]: 4.8 mmol⁻¹ s⁻¹

CC(C(=O)NCC(=O)NCCCC[C@H](NC(=O)CNC(=O)C(C)N1CCN(CC(=O)[O-])CCN(CC(=O)[O-])CCN(CC(=O)[O-])CC1)C(=O)N1CCN(S(=O)(=O)C(F)(F)C(F)(F)C(F)(F)C(F)(F)C(F)(F)C(F)(F)C(F)(F)C(F)(F)F)CC1)N1CCN(CC(=O)[O-])CCN(CC(=O)[O-])CCN(CC(=O)[O-])CC1.[Gd+3].[Gd+3] (some centres unmarked) [Example 3]
% Dosis pro Gesamtgewebe, Summe der Organe (sum total of all of the organs) ([3]; 10 min p.i., less the remainder of the body): 46,35%
% Dosis pro Gesamtgewebe, Summe der Organe (sum total of all of the organs) ([3]; 1 h p.i., less the remainder of the body): 41,79%
% Dosis pro Gesamtgewebe, Bilanz (balance) ([3]; 24 h p.i.): 96,24%
% Dosis pro Gesamtgewebe, Summe der Organe (sum total of all of the organs) ([3]; 24 h p.i.): 50,95%
% Dosis pro Gesamtgewebe (% dose per total tissue) [3, 4]: 35,18%
Gd-Konzentration (Gd-concentration) [3, 4]: 621 µmol/L
% Dosis pro Gesamtgewebe (% dose per total tissue) [3, 5]: 30,63%
Gd-Konzentration (Gd-concentration) [3, 5]: 534 µmol/L
% Dosis pro Gesamtgewebe (% dose per total tissue) [3, 6]: 9,58%
Gd-Konzentration (Gd-concentration) [3, 6]: 169 µmol/L
% Dosis pro Gesamtgewebe (% dose per total tissue) ([3]; brain, 10 min p.i.): 0,09%
Gd-Konzentration (Gd-concentration) ([3]; brain, 10 min p.i.): 16 µmol/L
% Dosis pro Gesamtgewebe (% dose per total tissue) ([3]; brain, 1 h p.i.): 0,10%
Gd-Konzentration (Gd-concentration) ([3]; brain, 1 h p.i.): 16 µmol/L
% Dosis pro Gesamtgewebe (% dose per total tissue) ([3]; brain, 24 h p.i.): 0,03%
Gd-Konzentration (Gd-concentration) ([3]; brain, 24 h p.i.): 5 µmol/L
% Dosis pro Gesamtgewebe (% dose per total tissue) ([3]; feces 0-24 h): 8,91%
Gd-Konzentration (Gd-concentration) ([3]; feces 0-24 h): 561 µmol/L
% Dosis pro Gesamtgewebe (% dose per total tissue) ([3]; femur, 10 min p.i.): 0,50%
Gd-Konzentration (Gd-concentration) ([3]; femur, 10 min p.i.): 61 µmol/L
% Dosis pro Gesamtgewebe (% dose per total tissue) ([3]; femur, 1 h p.i.): 0,50%
Gd-Konzentration (Gd-concentration) ([3]; femur, 1 h p.i.): 64 µmol/L
% Dosis pro Gesamtgewebe (% dose per total tissue) ([3]; femur, 24 h p.i.): 0,26%
Gd-Konzentration (Gd-concentration) ([3]; femur, 24 h p.i.): 33 µmol/L
% Dosis pro Gesamtgewebe (% dose per total tissue) ([3]; heart, 10 min p.i.): 0,40%
Gd-Konzentration (Gd-concentration) ([3]; heart, 10 min p.i.): 177 µmol/L
% Dosis pro Gesamtgewebe (% dose per total tissue) ([3]; heart, 1 h p.i.): 0,33%
Gd-Konzentration (Gd-concentration) ([3]; heart, 1 h p.i.): 151 µmol/L
% Dosis pro Gesamtgewebe (% dose per total tissue) ([3]; heart, 24 h p.i.): 0,15%
Gd-Konzentration (Gd-concentration) ([3]; heart, 24 h p.i.): 65 µmol/L
% Dosis pro Gesamtgewebe (% dose per total tissue) [3, 7]: 2,48%
Gd-Konzentration (Gd-concentration) [3, 7]: 146 µmol/L
% Dosis pro Gesamtgewebe (% dose per total tissue) ([3]; intestine (emptied), 1 h p.i.): 1,85%
Gd-Konzentration (Gd-concentration) ([3]; intestine (emptied), 1 h p.i.): 130 µmol/L
% Dosis pro Gesamtgewebe (% dose per total tissue) ([3]; intestine (emptied), 24 h p.i.): 1,63%
Gd-Konzentration (Gd-concentration) ([3]; intestine (emptied), 24 h p.i.): 101 µmol/L
% Dosis pro Gesamtgewebe (% dose per total tissue) ([3]; kidney, 10 min p.i.): 1,70%
Gd-Konzentration (Gd-concentration) ([3]; kidney, 10 min p.i.): 359 µmol/L
% Dosis pro Gesamtgewebe (% dose per total tissue) ([3]; kidney, 1 h p.i.): 2,00%
Gd-Konzentration (Gd-concentration) ([3]; kidney, 1 h p.i.): 394 µmol/L
% Dosis pro Gesamtgewebe (% dose per total tissue) ([3]; kidney, 24 h p.i.): 1,38%
Gd-Konzentration (Gd-concentration) ([3]; kidney, 24 h p.i.): 292 µmol/L
% Dosis pro Gesamtgewebe (% dose per total tissue) ([3]; liver, 10 min p.i.): 3,79%
Gd-Konzentration (Gd-concentration) ([3]; liver, 10 min p.i.): 137 µmol/L
% Dosis pro Gesamtgewebe (% dose per total tissue) ([3]; liver, 1 h p.i.): 3,93%
Gd-Konzentration (Gd-concentration) ([3]; liver, 1 h p.i.): 136 µmol/L
% Dosis pro Gesamtgewebe (% dose per total tissue) ([3]; liver, 24 h p.i.): 5,37%
Gd-Konzentration (Gd-concentration) ([3]; liver, 24 h p.i.): 172 µmol/L
% Dosis pro Gesamtgewebe (% dose per total tissue) ([3]; lung, 10 min p.i.): 1,30%
Gd-Konzentration (Gd-concentration) ([3]; lung, 10 min p.i.): 344 µmol/L
% Dosis pro Gesamtgewebe (% dose per total tissue) ([3]; lung, 1 h p.i.): 1,27%
Gd-Konzentration (Gd-concentration) ([3]; lung, 1 h p.i.): 321 µmol/L
% Dosis pro Gesamtgewebe (% dose per total tissue) ([3]; lung, 24 h p.i.): 0,56%
Gd-Konzentration (Gd-concentration) ([3]; lung, 24 h p.i.): 146 µmol/L
% Dosis pro Gesamtgewebe (% dose per total tissue) [3, 8]: 0,11%
Gd-Konzentration (Gd-concentration) [3, 8]: 155 µmol/L
% Dosis pro Gesamtgewebe (% dose per total tissue) [3, 9]: 1,10%
Gd-Konzentration (Gd-concentration) [3, 9]: 160 µmol/L
% Dosis pro Gesamtgewebe (% dose per total tissue) [3, 10]: 0,09%
Gd-Konzentration (Gd-concentration) [3, 10]: 127 µmol/L
% Dosis pro Gesamtgewebe (% dose per total tissue) [3, 11]: 0,12%
Gd-Konzentration (Gd-concentration) [3, 11]: 41 µmol/L
% Dosis pro Gesamtgewebe (% dose per total tissue) [3, 12]: 0,08%
Gd-Konzentration (Gd-concentration) [3, 12]: 40 µmol/L
% Dosis pro Gesamtgewebe (% dose per total tissue) [3, 13]: 0,03%
Gd-Konzentration (Gd-concentration) [3, 13]: 13 µmol/L
% Dosis pro Gesamtgewebe (% dose per total tissue) ([3]; pancreas, 10 min p.i.): 0,25%
Gd-Konzentration (Gd-concentration) ([3]; pancreas, 10 min p.i.): 99 µmol/L
% Dosis pro Gesamtgewebe (% dose per total tissue) ([3]; pancreas, 1 h p.i.): 0,23%
Gd-Konzentration (Gd-concentration) ([3]; pancreas, 1 h p.i.): 95 µmol/L
% Dosis pro Gesamtgewebe (% dose per total tissue) ([3]; pancreas, 24 h p.i.): 0,18%
Gd-Konzentration (Gd-concentration) ([3]; pancreas, 24 h p.i.): 55 µmol/L
% Dosis pro Gesamtgewebe (% dose per total tissue) [3, 14]: 0,13%
Gd-Konzentration (Gd-concentration) [3, 14]: 115 µmol/L
% Dosis pro Gesamtgewebe (% dose per total tissue) [3, 15]: 0,19%
Gd-Konzentration (Gd-concentration) [3, 15]: 186 µmol/L
% Dosis pro Gesamtgewebe (% dose per total tissue) [3, 16]: 0,11%
Gd-Konzentration (Gd-concentration) [3, 16]: 108 µmol/L
% Dosis pro Gesamtgewebe (% dose per total tissue) [3, 17]: 31,05%
Gd-Konzentration (Gd-concentration) [3, 17]: 103 µmol/L
% Dosis pro Gesamtgewebe (% dose per total tissue) ([3]; spleen, 10 min p.i.): 0,25%
Gd-Konzentration (Gd-concentration) ([3]; spleen, 10 min p.i.): 184 µmol/L
% Dosis pro Gesamtgewebe (% dose per total tissue) ([3]; spleen, 1 h p.i.): 0,23%
Gd-Konzentration (Gd-concentration) ([3]; spleen, 1 h p.i.): 161 µmol/L
% Dosis pro Gesamtgewebe (% dose per total tissue) ([3]; spleen, 24 h p.i.): 0,25%
Gd-Konzentration (Gd-concentration) ([3]; spleen, 24 h p.i.): 161 µmol/L
% Dosis pro Gesamtgewebe (% dose per total tissue) ([3]; stomach (emptied), 10 min p.i.): 0,47%
Gd-Konzentration (Gd-concentration) ([3]; stomach (emptied), 10 min p.i.): 90 µmol/L
% Dosis pro Gesamtgewebe (% dose per total tissue) ([3]; stomach (emptied), 1 h p.i.): 0,50%
Gd-Konzentration (Gd-concentration) ([3]; stomach (emptied), 1 h p.i.): 93 µmol/L
% Dosis pro Gesamtgewebe (% dose per total tissue) ([3]; stomach (emptied), 24 h p.i.): 0,27%
Gd-Konzentration (Gd-concentration) ([3]; stomach (emptied), 24 h p.i.): 48 µmol/L
% Dosis pro Gesamtgewebe (% dose per total tissue) ([3]; tumor, 10 min p.i.): 0,20%
Gd-Konzentration (Gd-concentration) ([3]; tumor, 10 min p.i.): 82 µmol/L
% Dosis pro Gesamtgewebe (% dose per total tissue) ([3]; tumor, 1 h p.i.): 0,40%
Gd-Konzentration (Gd-concentration) ([3]; tumor, 1 h p.i.): 126 µmol/L
% Dosis pro Gesamtgewebe (% dose per total tissue) ([3]; tumor, 24 h p.i.): 0,46%
Gd-Konzentration (Gd-concentration) ([3]; tumor, 24 h p.i.): 100 µmol/L
% Dosis pro Gesamtgewebe (% dose per total tissue) ([3]; urine 0-24 h): 36,38%
Gd-Konzentration (Gd-concentration) ([3]; urine 0-24 h): 60 µmol/L
